TGI data for 7 compounds are collected here from PubChem BioAssay (NCI).

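In this assay, cells in 96-well plates receive the compound at five concentrations for 48 hours. Endpoints are linearly interpolated between the surrounding concentrations. Definition used: TGI = concentration required for complete inhibition of growth.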

Test systems include EKVX NSCLC; HCT-116 colon; HCT-15 colon; HL-60(TB) leukemia; HOP-92 NSCLC; HT29 colon; LOX IMVI melanoma; M14 melanoma; NCI-H23 lung; NCI-H460 lung; OVCAR-3 ovarian; OVCAR-5 ovarian; OVCAR-8 ovarian; SK-MEL-2 melanoma; SK-MEL-5 melanoma; SNB-75 CNS; SR leukemia; SW-620 colon; U251 CNS.
Assay in all cases: inhibition of tumour cell growth, NCI panel, 48 h

On to `Cc1cc2sc(C)[n+](CCCOS(=O)(=O)[O-])c2cc1C`, for which the TGI in the experiment with EKVX NSCLC, in the experiment on HCT-116 colon, with HCT-15 colon, in the experiment on HL-60(TB) leukemia, with HOP-92 NSCLC and in the experiment on HT29 colon was above 100 µM in each case. Also, the TGI with LOX IMVI melanoma, in the experiment with M14 melanoma, with NCI-H23 lung, in the experiment with NCI-H460 lung, with OVCAR-3 ovarian and in the experiment on OVCAR-5 ovarian was above 100 µM throughout. Further, the TGI with OVCAR-8 ovarian, in the experiment with SK-MEL-2 melanoma, with SK-MEL-5 melanoma, with SNB-75 CNS, in the experiment with SR leukemia and with SW-620 colon was above 100 µM each time. The TGI in the experiment on U251 CNS was above 100 µM.
As to `C/C=C(\C)C(=O)OC1C(C)=C2C(C1OC(=O)CCCC)C(C)(OC(C)=O)CC(OC(=O)CCCC)C1(O)C2OC(=O)C1(C)O` (stereo unspecified), the TGI was above 100 µM in the experiment on EKVX NSCLC; 2.09 µM in the experiment on HCT-116 colon; above 100 µM with HCT-15 colon; above 100 µM with HL-60(TB) leukemia; above 100 µM in the experiment on HOP-92 NSCLC; 9.72 µM in the experiment on HT29 colon. Also, the TGI with LOX IMVI melanoma was 2.08 µM; with M14 melanoma, 4.53 µM; with NCI-H23 lung, above 47.4 µM; in the experiment on NCI-H460 lung, above 100 µM; with OVCAR-3 ovarian, 2.62 µM; with OVCAR-5 ovarian it was above 93.3 µM. For the same compound, the TGI is above 100 µM in the experiment with OVCAR-8 ovarian; 3.96 µM in the experiment on SK-MEL-2 melanoma; 48.6 µM with SNB-75 CNS; above 81 µM with SR leukemia; above 100 µM with U251 CNS.
On to `O=C(O)NCC1CCCCC1` (tested in a mixture with another compound), for which the TGI in the experiment with EKVX NSCLC is above 100 µM; in the experiment with HCT-116 colon it was 88.7 µM; in the experiment on HCT-15 colon, 63.6 µM; in the experiment on HL-60(TB) leukemia it was 38.5 µM; in the experiment with HOP-92 NSCLC, 24.4 µM; in the experiment with HT29 colon, 66.6 µM. The TGI in the experiment on LOX IMVI melanoma was 28.6 µM; in the experiment with M14 melanoma it was above 100 µM; with NCI-H23 lung it was 81.2 µM; with NCI-H460 lung, 26.1 µM; in the experiment with OVCAR-3 ovarian it was 19.8 µM; in the experiment on OVCAR-5 ovarian, above 100 µM. The TGI in the experiment on OVCAR-8 ovarian was 31.7 µM; in the experiment with SK-MEL-2 melanoma, 30.9 µM; in the experiment with SK-MEL-5 melanoma it was 28.7 µM; in the experiment with SNB-75 CNS, 36.6 µM; in the experiment with SR leukemia it was 72 µM; in the experiment with SW-620 colon it was 52.4 µM. The same compound returned a TGI in the experiment with U251 CNS of 20.3 µM.
Turning to `OC(c1cc(-c2ccc(Cl)cc2)nc2ccccc12)C1CCCCN1` (stereo unspecified), the TGI came out at 4.74 µM in the experiment on EKVX NSCLC; 3.74 µM in the experiment with HCT-116 colon; 6.11 µM with HCT-15 colon; 4.61 µM with HL-60(TB) leukemia; 12.2 µM in the experiment on HOP-92 NSCLC; 3.82 µM with HT29 colon. Moreover, the TGI was determined as 2.09 µM in the experiment with LOX IMVI melanoma; 3.37 µM in the experiment on M14 melanoma; 4.58 µM with NCI-H23 lung; 4.76 µM with NCI-H460 lung; 3.98 µM in the experiment on OVCAR-3 ovarian; 4.94 µM with OVCAR-5 ovarian. Besides, the TGI is 5.28 µM in the experiment with OVCAR-8 ovarian, 5.9 µM with SK-MEL-5 melanoma, 3.69 µM with SW-620 colon and 3.25 µM in the experiment with U251 CNS.
With `C1CSC(=[N+]2CC[N+](=C3SCCS3)CC2)S1`, the TGI in the experiment with EKVX NSCLC, with HCT-116 colon, in the experiment on HCT-15 colon, in the experiment on HL-60(TB) leukemia, in the experiment with HOP-92 NSCLC and in the experiment on HT29 colon was above 100 µM in each case. Further, the TGI with LOX IMVI melanoma, in the experiment on M14 melanoma, with NCI-H23 lung, with NCI-H460 lung, with OVCAR-3 ovarian and with OVCAR-5 ovarian was above 100 µM in each case. Besides, the TGI with OVCAR-8 ovarian, with SK-MEL-2 melanoma, in the experiment with SK-MEL-5 melanoma, with SNB-75 CNS, in the experiment on SR leukemia and with SW-620 colon was above 100 µM in each case. Moreover, the TGI in the experiment with U251 CNS was above 100 µM.
Take `COC(=O)c1cc2cc3c(c(O)c2c(=O)o1)O[C@@]1(Oc2c(O)c4c(c(O)c2[C@H]1OC1CC(OC)C(O)C(C)O1)C(=O)C=C(OC)C4=O)[C@H](O)C3` (stereo partly specified): the TGI is 12.3 µM in the experiment on EKVX NSCLC; above 20.8 µM in the experiment with HCT-116 colon; above 19.7 µM with HCT-15 colon; 3.39 µM with HL-60(TB) leukemia; above 23.6 µM in the experiment with HOP-92 NSCLC; above 20.3 µM in the experiment with HT29 colon. In addition, the TGI is above 100 µM with M14 melanoma; 3.85 µM in the experiment on NCI-H23 lung; above 21.6 µM in the experiment with NCI-H460 lung; above 23.4 µM with OVCAR-3 ovarian; above 24.3 µM in the experiment with OVCAR-5 ovarian; 10.7 µM in the experiment with OVCAR-8 ovarian. In addition, the TGI with SK-MEL-2 melanoma was 10.5 µM; in the experiment with SR leukemia it was 4.76 µM; with SW-620 colon, above 39.8 µM.
Consider `Nc1c(C(=O)Nc2ccc(C3=NCCN3)cc2)cccc1C(=O)Nc1ccc(C2=NCCN2)cc1`, for which the TGI with HCT-116 colon, in the experiment on HCT-15 colon, with HL-60(TB) leukemia, with HOP-92 NSCLC, in the experiment with HT29 colon and in the experiment with LOX IMVI melanoma was above 100 µM throughout. In addition, the TGI in the experiment on NCI-H23 lung, with NCI-H460 lung, with OVCAR-3 ovarian, in the experiment with OVCAR-5 ovarian, with OVCAR-8 ovarian and in the experiment on SK-MEL-2 melanoma was above 100 µM throughout. The TGI with SK-MEL-5 melanoma, in the experiment with SNB-75 CNS, in the experiment with SW-620 colon and in the experiment on U251 CNS was above 100 µM throughout.
